Assay results from publication PMC9636582 (The Journal of Biological Chemistry, 2022).
pEC50: −log10 of the molar value. “Also recorded” adds a separate entry of the source.

What was measured:
GAL4-PPARα LBD = biological target: T1, GAL4-PPARα LBD (Homo sapiens, UniProt Q07869); assay: GAL4-PPARα LBD luciferase reporter assay in HEK293 cells; format: cell-based; conditions: GAL4-PPARα LBD, calculated from luciferase activity with Quest Graph EC50 Calculator
T1 construct: chimeric receptors containing the LBD of various NRs; expressed in transfected cells; host or cells: HEK293
T1 sequence (Q07869 239-466 limits assumed): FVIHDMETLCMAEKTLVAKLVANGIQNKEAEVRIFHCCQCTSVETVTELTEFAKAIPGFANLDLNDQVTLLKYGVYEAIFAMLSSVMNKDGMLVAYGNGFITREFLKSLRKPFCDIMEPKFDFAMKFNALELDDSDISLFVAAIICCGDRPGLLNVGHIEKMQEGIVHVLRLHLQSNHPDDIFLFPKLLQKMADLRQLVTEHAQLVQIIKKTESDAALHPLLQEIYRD

[1] = system: human intestinal organoids; assay: intracellular triglyceride in human intestinal organoids; format: cell-based; conditions: organoids pretreated with 500 μM oleic acid 48 h, then 1 μM GW1516 or 30 μM fatty acids 24 h
[2] = biological target: T2, recombinant human PPARδ LBD protein (Homo sapiens, UniProt Q03181); assay: [14C] DHA competitive ligand-binding assay; conditions: 100 nM [14C] DHA, 1 μM nonlabeled fatty acids, overnight at 4 °C
T2 construct: Human PPARδ LBD (140–442) construct was cloned into a pGEX-4T1 vector; GST (N, cleaved yes); made in house; host or cells: Escherichia coli BL21 (DE3) pLys
T2 sequence (Q03181 140-441 limits assumed): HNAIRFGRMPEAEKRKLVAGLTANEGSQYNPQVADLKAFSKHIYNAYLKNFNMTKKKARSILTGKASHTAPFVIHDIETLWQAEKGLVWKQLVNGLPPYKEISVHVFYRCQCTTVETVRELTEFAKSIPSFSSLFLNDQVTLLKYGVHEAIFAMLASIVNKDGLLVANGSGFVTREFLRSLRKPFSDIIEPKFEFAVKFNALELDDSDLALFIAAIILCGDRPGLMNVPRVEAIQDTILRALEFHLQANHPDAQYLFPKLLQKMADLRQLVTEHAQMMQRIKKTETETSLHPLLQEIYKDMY
Description: To identify the mechanism underlying the activation of PPARδ by GLA-derived fatty acids, we performed a [^14C] DHA competitive ligand-binding assay describing the displacement of ligands from receptors with recombinant human PPARδ LBD protein produced by a bacterial expression system (Figs. 4, A and B and S2). PPARδ LBD or glutathione-S-transferase (GST) recombinant protein was incubated with both [^14C] […] A competitive inhibition of [^14C] DHA binding was analyzed as a direct binding to PPARδ LBD (see Experimental procedures). […] DHA binding to PPARδ LBD competitively (Fig. 4C).
Human PPARδ LBD (140–442) construct was cloned into a pGEX-4T1 vector (GE Healthcare Life Sciences) at the restriction enzyme site of SmaI and XhoI. The protein was expressed in Eschericia coli BL21 (DE3) pLys cells (Novagen) as a C-terminal fusion to a GST tag with a thrombin cleavage site. A single colony was cultured in 2 ml of LB media supplemented with 20 μg/ml of ampicillin and 30 μg/ml of chloramphenicol at 37 °C and 200 rpm for 18 h. The preculture was then transferred to 1 l of LB media until the A600 reached 0.6 to 0.8. IPTG was added to produce a final concentration of 0.4 mM, and expression was continued at 24 °C and 150 rpm for 18 h. Cells were collected using centrifugation, and pellets were resuspended in lysis buffer comprising 50 mM Tris–HCl (pH 7.5), 150 mM NaCl, 5 mM DTT, 1 mM EDTA, and 10% glycerol before sonication was performed. The supernatant was then collected using centrifugation at 100,000g and 4 °C for 70 min, after which it was loaded onto GST Accept (nacalai tesque) and equilibrated using the lysis buffer. Subsequently, the column was washed using five column volumes of the lysis buffer and thrombin cleavage buffer comprising 20 mM Tri–HCl (pH 8.4), 150 mM NaCl, 2.5 mM CaCl2, and 1 mM DTT, respectively. The GST tag was removed via digestion using biotinylated thrombin (Merck) for 18 h at 4 °C. The biotinylated thrombin was removed using Dynabeads M-280 streptavidin (Veritas). The purity of the target proteins was verified using SDS-PAGE.
A ligand-binding assay was performed as described previously with minor modifications ([72]). Briefly, purified recombinant human PPARδ LBD protein was incubated with 100 nM ([…]) [^14C] DHA in GP buffer (137 mM NaCl, 8.1 mM Na2HPO4, 2.68 mM KCl, 1.47 mM KH2PO4, 1% sodium azide, and 0.1% gelatin) overnight at 4 °C with or without various competitors (1 μM), including DHA and GLA-derived fatty acids. Unbound ligands were removed by adsorption to 3% dextran-coated charcoal, and the supernatant was collected. The PPARδ-bound [^14C] DHA was measured using a scintillation counter (PerkinElmer).

VP16-PPARδ / GAL4-SRC-1 = biological target: T3, VP16-PPARδ / GAL4-SRC-1 (Homo sapiens, UniProt Q03181); assay: mammalian two-hybrid assay, VP16-PPARδ and coactivator GAL4-SRC-1; format: cell-based; conditions: 30 μM fatty acids, 100 nM GW1516, HEK293 cells, Fig. 3A
T3 construct: expressed in transfected cells; host or cells: HEK293
T3 sequence (Q03181 1-441): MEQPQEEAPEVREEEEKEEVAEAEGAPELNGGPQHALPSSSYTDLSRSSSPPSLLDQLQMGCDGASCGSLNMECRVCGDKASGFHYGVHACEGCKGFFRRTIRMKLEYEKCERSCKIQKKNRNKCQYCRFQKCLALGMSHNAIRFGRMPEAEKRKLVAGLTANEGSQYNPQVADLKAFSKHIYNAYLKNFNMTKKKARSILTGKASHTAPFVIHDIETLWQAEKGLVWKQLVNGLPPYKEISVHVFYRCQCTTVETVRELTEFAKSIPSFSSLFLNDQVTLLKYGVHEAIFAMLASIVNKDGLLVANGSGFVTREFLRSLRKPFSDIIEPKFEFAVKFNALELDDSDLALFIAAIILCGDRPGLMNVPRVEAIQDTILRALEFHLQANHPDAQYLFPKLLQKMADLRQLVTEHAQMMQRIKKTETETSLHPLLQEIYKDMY
T3 sequence (Q15788 595-771 partner limits assumed): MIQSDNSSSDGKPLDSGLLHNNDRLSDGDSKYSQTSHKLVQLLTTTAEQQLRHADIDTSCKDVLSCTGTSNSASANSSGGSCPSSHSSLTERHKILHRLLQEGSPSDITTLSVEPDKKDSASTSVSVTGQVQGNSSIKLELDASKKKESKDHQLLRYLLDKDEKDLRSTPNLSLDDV

[3] = system: human intestinal organoids; assay: fatty acid β-oxidation activity in living organoids (FAOBlue); format: cell-based; conditions: organoids pretreated with 500 μM oleic acid 48 h, then 1 μM GW1516 or 30 μM fatty acids 24 h

| Structure (SMILES) | pEC50 (GAL4-PPARα LBD) | intracellular triglyceride levels [1] | competitive displacement of [14C] DHA binding to PPARδ LBD [2] | recruitment of coactivator SRC-1 to PPARδ (VP16-PPARδ / GAL4-SRC-1) | fatty acid β-oxidation activity [3] |
| --- | --- | --- | --- | --- | --- |
| CCCCC/C=C\C/C=C\C/C=C\CCCCC(=O)O [GLA, γ-linolenic acid, reference compound] | 4.96 | not | only weak competition | not | not |
| CCCCCC(O)CCC=CCC=CCCCCC(=O)O (stereo not drawn) [γHYD, 13-hydroxy-cis-6,cis-9-octadecadienoic acid] | 5.55 | reduced intracellular triglyceride accumulation | displaced [^14C] DHA binding to PPARδ LBD competitively; also recorded: comparable ligand-binding abilities to that of the C22 fatty acid DHA | induced coactivator-recruitment | enhanced fatty acid β-oxidation |
| CCCCCC(=O)CCC=CCC=CCCCCC(=O)O [γKetoD, 13-oxo-cis-6,cis-9-octadecadienoic acid] | 5.38 | reduced intracellular triglyceride accumulation | displaced [^14C] DHA binding to PPARδ LBD competitively; also recorded: comparable ligand-binding abilities to that of the C22 fatty acid DHA | induced coactivator-recruitment | enhanced fatty acid β-oxidation |
